According to patent US20060063764A1, “Insect repellents” (Givaudan SA, priority 2002, published 2006):
Several values for one entry are separate records, joined by “and”; a condition that tells them apart may be missing. Equal entries are not always repeated.

Test system: German cockroaches (Blatella Germanica)
Assay: Cockroach repellency on partially treated melamine-formaldehyde laminate surface (harbourage choice test)
Format: in vivo
Conditions: 20 mg/m^2; for Percentage Present on treated section, Average / Percentage Present on untreated section, Average: Average of days 1, 2, 3; for Number of Cockroaches present, Treated Section / Number of Cockroaches present, Untreated Section / Number of Cockroaches, Dead: single replicate, n = 20; for Number of Cockroaches present, Treated Section, Total of 4 replicates / Number of Cockroaches present, Untreated Section, Total of 4 replicates / Number of Cockroaches, Dead, Total of 4 replicates: total of 80
Description: The effectiveness of compounds of formula I as insect repellents is determined using German cockroaches exposed to a melamine-formaldehyde laminate surface partially treated/partially untreated with a test compound of formula I.
The study was conducted in an air-conditioned laboratory at a temperature of 22°±2° ° C. under a normal day/night cycle, using German cockroaches (Blatella Germanica) of mixed sex and age. The study was conducted over a 3 day period and the repellent effectiveness was assessed 1, 2 and 3 days after cockroach introduction.
One half of a rectangle of laminate 40 cm×30 cm was treated at 20 mg/m^2 of a test compound of formula I. This was achieved by soaking a paper wipe (“Rag on a Roll” ca 20 cm×20 cm) in a solution of the test compound in ethanol, squeezing out the excess liquid and wiping over the surface to give the required coverage. This was checked by weighing the cloth after application. The surface was allowed to dry. The other half of the rectangle was wiped with ethanol alone (untreated surface).
The treated laminate rectangle was placed on the bench and a plastic container was placed on the rectangle. This had been treated with “Fluon” (trade mark), a sprayable fluoropolymer, to prevent cockroach escape.
Two sheets of laminate (10 cm×10 cm) were placed on the laminate, one on the treated surface and one on the untreated surface. This acted as a cockroach harbourage. The laminate sheet to be used in the treated section was treated at the same rate as the treated laminate. The laminate was placed on two 1 cm high bottle tops to allow cockroaches access under the laminate.
20 German cockroaches were added (5 adults and 15 nymphs) to the centre of the laminate. No food and water was supplied for these cockroaches.
At 1, 2 and 3 days after cockroach introduction the number of cockroaches under each harbourage was counted. After each count the harbourage position was changed to avoid the possibility of habituation to one location, the harbourages were replaced and new cockroaches were added to replace any dead cockroaches.
The above was repeated 3 times to provide a total of 4 replicates.
The methodology of Example 2 was repeated for all of the compounds set forth in Example 1.

[1] = 1 day after cockroach introduction
[2] = 2 days after cockroach introduction
[3] = 3 days after cockroach introduction

| Compound | Percentage Present on treated section (1 day after treatment) | Percentage Present on untreated section (1 day after treatment) | Percentage Present on treated section (2 days after treatment) | Percentage Present on untreated section (2 days after treatment) | Percentage Present on treated section (3 days after treatment) | Percentage Present on untreated section (3 days after treatment) | Percentage Present on treated section, Average | Percentage Present on untreated section, Average | further results |
| --- | --- | --- | --- | --- | --- | --- | --- | --- | --- |
| CC(C)[C@@H]1CC[C@@H](C)C[C@H]1OC(=O)N1CCCCC1 | 10.0% | 90.0% | 11.3% | 88.7% | 3.9% | 96.1% | 8.4% | 91.6% |  |
| CC(C)[C@@H]1CC[C@@H](C)C[C@H]1OC(=O)N1CCOCC1 | 17.5% | 82.5% | 17.5% | 82.5% | 25.0% | 75.0% | 20.0% | 80.0% |  |
| CC(C)[C@@H]1CC[C@@H](C)C[C@H]1OC(=O)Nc1ccccc1 | 2.5% | 97.5% | 3.7% | 96.3% | 2.5% | 97.5% | 2.9% | 97.1% |  |
| CNC(=O)O[C@@H]1C[C@H](C)CC[C@H]1C(C)C [Methyl-Carbamic Acid (−)-Menthyl Ester, Methyl-carbamic acid (−)-menthyl ester] |  |  |  |  |  |  |  |  | Number of Cockroaches present, Treated Section [1]: 0 (2×) and 3 and 1; Number of Cockroaches present, Untreated Section [1]: 20 and 19 (2×) and 17; Number of Cockroaches, Dead [1]: 0 (3×) and 1; Number of Cockroaches present, Treated Section, Total of 4 replicates [1]: 4; Number of Cockroaches present, Untreated Section, Total of 4 replicates [1]: 75; Number of Cockroaches, Dead, Total of 4 replicates [1]: 1; Number of Cockroaches present, Treated Section [2]: 1 (2×) and 0 (2×); Number of Cockroaches present, Untreated Section [2]: 19 (3×) and 20; Number of Cockroaches, Dead [2]: 0 (3×) and 1; Number of Cockroaches present, Treated Section, Total of 4 replicates [2]: 2; Number of Cockroaches present, Untreated Section, Total of 4 replicates [2]: 77; Number of Cockroaches, Dead, Total of 4 replicates [2]: 1; Number of Cockroaches present, Treated Section [3]: 0 (3×) and 1; Number of Cockroaches present, Untreated Section [3]: 20 (3×) and 19; Number of Cockroaches, Dead [3]: 0; Number of Cockroaches present, Treated Section, Total of 4 replicates [3]: 1; Number of Cockroaches present, Untreated Section, Total of 4 replicates [3]: 79; Number of Cockroaches, Dead, Total of 4 replicates [3]: 0 |
| CNC(=O)O[C@@H]1C[C@H](C)CC[C@H]1C(C)C [drawing 13] | 5.1% | 94.9% | 2.5% | 97.5% | 1.3% | 98.7% | 3.0% | 97.0% |  |
| CC(C)[C@@H]1CC[C@@H](C)C[C@H]1OC(=O)N1CCCC1 | 2.5% | 97.5% | 7.5% | 92.5% | 12.7% | 87.3% | 7.6% | 92.4% |  |
| CCN(CC)C(=O)O[C@@H]1C[C@H](C)CC[C@H]1C(C)C | 7.6% | 92.4% | 2.5% | 97.5% | 2.5% | 97.5% | 4.2% | 95.8% |  |
| COC(=O)CCNC(=O)O[C@@H]1C[C@H](C)CC[C@H]1C(C)C | 11.4% | 88.6% | 2.5% | 97.5% | 10.0% | 90.0% | 8.0% | 92.0% |  |
| CC(C)CNC(=O)O[C@@H]1C[C@H](C)CC[C@H]1C(C)C | 31.3% | 68.7% | 17.5% | 82.5% | 16.3% | 83.7% | 21.7% | 78.3% |  |
| CCCCNC(=O)O[C@@H]1C[C@H](C)CC[C@H]1C(C)C | 6.3% | 93.7% | 17.5% | 82.5% | 7.5% | 92.5% | 10.5% | 89.6% |  |
